Assay results from ChEMBL document CHEMBL1201862, “PubChem BioAssay data set” (2004).
Calls of active or inactive are those of the source.

Experiments:
[1] = P. falciparum Dd2 growth inhibitors, dose response, SYBR Green, dry powder samples, set 9 (AID 1159568); format: functional, cell-based
[2] = HeLa 2N DNA content increase, dose response, cell-based, IC50 (AID 1117349); format: functional
[3] = HeLa 4N DNA content increase, dose response, cell-based, IC50 (AID 1117351); format: functional
[4] = Artemis endonuclease inhibitor potency, dose response, biochemical, fluorescence intensity (AID 720701); format: functional;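 also: Artemis endonuclease enzyme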
[5] = target: Nonstructural protein 1 (Influenza A virus, UniProt Q194T2); format: functional, Influenza A virus (A/California/07/2009(H1N1))
Nonstructural protein 1, sequence (Q194T2 whole entry): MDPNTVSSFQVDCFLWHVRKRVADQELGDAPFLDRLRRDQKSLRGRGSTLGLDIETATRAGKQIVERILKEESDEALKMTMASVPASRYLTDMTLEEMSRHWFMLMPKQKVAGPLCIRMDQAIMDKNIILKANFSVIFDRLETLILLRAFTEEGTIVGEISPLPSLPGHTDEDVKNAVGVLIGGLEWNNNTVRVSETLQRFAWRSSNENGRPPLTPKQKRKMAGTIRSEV

[6] = target: T1, Histone-lysine N-methyltransferase NSD2 (Homo sapiens, UniProt O96028); format: biochemical
T1 sequence (O96028 whole entry): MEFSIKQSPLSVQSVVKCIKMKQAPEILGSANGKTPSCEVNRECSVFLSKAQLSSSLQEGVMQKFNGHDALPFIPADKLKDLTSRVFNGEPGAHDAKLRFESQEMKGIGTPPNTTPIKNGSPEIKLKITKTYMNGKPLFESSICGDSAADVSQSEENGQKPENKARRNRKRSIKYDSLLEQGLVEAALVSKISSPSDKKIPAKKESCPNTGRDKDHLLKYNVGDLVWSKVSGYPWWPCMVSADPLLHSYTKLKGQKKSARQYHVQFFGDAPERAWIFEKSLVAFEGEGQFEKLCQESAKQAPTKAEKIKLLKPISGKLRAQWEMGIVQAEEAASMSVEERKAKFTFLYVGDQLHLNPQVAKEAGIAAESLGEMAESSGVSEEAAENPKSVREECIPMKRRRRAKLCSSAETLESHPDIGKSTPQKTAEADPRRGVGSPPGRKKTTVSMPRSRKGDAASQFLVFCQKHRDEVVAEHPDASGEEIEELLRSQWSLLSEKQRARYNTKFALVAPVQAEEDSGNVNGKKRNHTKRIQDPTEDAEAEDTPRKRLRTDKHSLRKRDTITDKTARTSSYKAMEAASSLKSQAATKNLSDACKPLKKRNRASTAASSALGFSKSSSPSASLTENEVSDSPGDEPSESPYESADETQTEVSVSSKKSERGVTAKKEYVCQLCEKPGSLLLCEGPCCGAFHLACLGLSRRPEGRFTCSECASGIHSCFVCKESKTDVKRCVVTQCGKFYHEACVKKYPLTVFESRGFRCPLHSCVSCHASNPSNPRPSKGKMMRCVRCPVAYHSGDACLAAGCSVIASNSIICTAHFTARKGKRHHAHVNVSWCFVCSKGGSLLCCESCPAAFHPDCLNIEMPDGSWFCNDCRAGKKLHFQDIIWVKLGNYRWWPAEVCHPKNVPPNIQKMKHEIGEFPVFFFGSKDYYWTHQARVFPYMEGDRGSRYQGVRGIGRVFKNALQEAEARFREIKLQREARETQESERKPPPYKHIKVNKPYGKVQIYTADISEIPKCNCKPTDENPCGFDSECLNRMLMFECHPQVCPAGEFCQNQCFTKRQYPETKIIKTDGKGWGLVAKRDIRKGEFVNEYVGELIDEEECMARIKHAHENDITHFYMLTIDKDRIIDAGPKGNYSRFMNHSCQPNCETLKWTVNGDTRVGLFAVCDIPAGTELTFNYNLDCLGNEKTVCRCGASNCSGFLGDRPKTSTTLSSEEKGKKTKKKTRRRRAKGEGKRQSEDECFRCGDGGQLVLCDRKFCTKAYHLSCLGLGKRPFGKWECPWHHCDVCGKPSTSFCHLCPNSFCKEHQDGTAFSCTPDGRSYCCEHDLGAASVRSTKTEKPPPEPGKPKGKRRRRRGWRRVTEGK

[7] = A375 melanoma cell cytotoxicity, dose response, counter-screen for MITF inhibitor project, CellTiter-Glo luminescence, dry powder, set 2 (AID 624489); format: functional, cell-based; conditions: A-375;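 also: actives are compounds lowering A375 viability meaning general cytotoxicity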
[8] = A375 melanoma cell viability loss, dose response, counter-screen for MITF inhibitor project, CellTiter-Glo luminescence, dry powder, set 4 (AID 624364); format: functional, cell-based; conditions: A-375;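 also: A375 melanoma cells are MITF independent so this is a counter screen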
[9] = P. falciparum 3D7-ScDHODH growth inhibitors, dose response, SYBR Green, dry powder samples (AID 1159570); format: functional, cell-based;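 also: parasite growth measured after 72 hours of compound exposure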
[10] = HepG2 cell cytotoxicity, dose response, cytotoxicity control, plate reader, dry powder samples (AID 1159569); format: functional, cell-based;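 also: inhibitor potency with signal falling toward the positive control level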
[11] = P. falciparum Dd2 growth inhibitors, dose response, SYBR Green, cherry-picked samples (AID 1159567); format: functional, cell-based
[12] = P. falciparum ATP4 D1247Y mutant growth inhibitors, dose response, NITD609-resistant line, SYBR Green, dry powder (AID 1159571); format: functional, cell-based;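 also: parasites synchronized at ring stage by sorbitol before testing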
[13] = HepG2 cell cytotoxicity, dose response, cytotoxicity control, cherry-picked samples (AID 1159577); format: functional, cell-based
[14] = P. falciparum Dd2 growth inhibitors, dose response, SYBR Green, dry powder samples (AID 1159566); format: functional, cell-based;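 also: potency for growth inhibition with lower SYBR green DNA signal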
[15] = target: Glutathione-S-transferase (Schistosoma japonicum, UniProt Q26513); test: biotin-GST/anti-GST TR-FRET signal inhibitors, dose response, artefact control for Vif-APOBEC3G degradation inhibitor project, biochemical (AID 1117362); format: functional
Glutathione-S-transferase, sequence (Q26513 whole entry): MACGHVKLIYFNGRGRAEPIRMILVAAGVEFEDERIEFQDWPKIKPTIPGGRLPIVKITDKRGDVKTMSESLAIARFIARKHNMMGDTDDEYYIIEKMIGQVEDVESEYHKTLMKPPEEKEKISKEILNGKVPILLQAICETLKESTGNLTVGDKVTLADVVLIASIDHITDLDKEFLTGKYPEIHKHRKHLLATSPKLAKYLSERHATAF

[16] = inhibitors of Vif binding to APOBEC3G peptide, primary screen, biochemical, TR-FRET, GST-Vif 1-94, biotin-A3G peptide, dose response retest (AID 1117319); format: functional;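 also: TR-FRET signal of purified GST-Vif binding a biotinylated A3G peptide; inhibitors lower the FRET signal by blocking Vif and A3G binding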
[17] = target: T2, Caspase-7 (Homo sapiens, UniProt P55210); test: human caspase-7 inhibitors, dose response, selectivity assay for caspase-6 inhibitor project, biochemical, DEVD-R110 fluorescence, cherry-pick (AID 743295)
T2 sequence (P55210 whole entry): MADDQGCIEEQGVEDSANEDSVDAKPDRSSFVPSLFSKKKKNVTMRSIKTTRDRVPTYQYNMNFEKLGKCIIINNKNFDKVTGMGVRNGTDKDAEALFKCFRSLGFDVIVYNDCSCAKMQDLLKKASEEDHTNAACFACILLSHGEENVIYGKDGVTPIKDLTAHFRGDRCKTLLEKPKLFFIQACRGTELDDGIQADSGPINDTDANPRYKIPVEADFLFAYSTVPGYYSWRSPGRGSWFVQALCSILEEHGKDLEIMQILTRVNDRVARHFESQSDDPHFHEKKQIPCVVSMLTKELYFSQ

[18] = target: T3, Tyrosyl-DNA phosphodiesterase 2 (Homo sapiens, UniProt O95551); test: human TDP2 enzyme inhibitors, dose response, biochemical, epi absorbance, IC50 (AID 743297)
T3 sequence (O95551 whole entry): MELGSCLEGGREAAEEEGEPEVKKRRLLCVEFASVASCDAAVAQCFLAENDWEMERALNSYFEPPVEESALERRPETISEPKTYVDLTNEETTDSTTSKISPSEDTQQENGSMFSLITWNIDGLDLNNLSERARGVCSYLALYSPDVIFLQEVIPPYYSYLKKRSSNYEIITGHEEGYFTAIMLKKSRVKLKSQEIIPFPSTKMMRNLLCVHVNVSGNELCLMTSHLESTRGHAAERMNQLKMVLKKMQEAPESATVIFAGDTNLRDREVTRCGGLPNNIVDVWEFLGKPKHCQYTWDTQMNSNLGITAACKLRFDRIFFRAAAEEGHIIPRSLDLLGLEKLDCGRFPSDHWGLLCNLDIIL

[19] = target: T4, Caspase-6 (Homo sapiens, UniProt P55212); test: human caspase-6 inhibitors, dose response, biochemical, VEID-R110 fluorescence, cherry-pick (AID 720632)
T4 sequence (P55212 whole entry): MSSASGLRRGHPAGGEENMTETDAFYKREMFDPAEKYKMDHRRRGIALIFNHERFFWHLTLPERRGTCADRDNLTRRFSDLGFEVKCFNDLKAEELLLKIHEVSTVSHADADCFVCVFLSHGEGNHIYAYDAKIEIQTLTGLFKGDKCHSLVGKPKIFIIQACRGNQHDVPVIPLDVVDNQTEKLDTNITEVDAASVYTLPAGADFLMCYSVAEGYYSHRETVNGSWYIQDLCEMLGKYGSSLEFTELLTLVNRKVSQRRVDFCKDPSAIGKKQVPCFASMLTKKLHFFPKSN

[20] = target: Caspase-8 (Homo sapiens, UniProt Q14790); test: caspase-8 inhibition counter-screen, dose response, selectivity assay for caspase-6 inhibitor project, biochemical, Z-IETD-R110 fluorescence, cherry-picked samples (AID 743294)
Caspase-8, sequence (Q14790 217-374 limits assumed): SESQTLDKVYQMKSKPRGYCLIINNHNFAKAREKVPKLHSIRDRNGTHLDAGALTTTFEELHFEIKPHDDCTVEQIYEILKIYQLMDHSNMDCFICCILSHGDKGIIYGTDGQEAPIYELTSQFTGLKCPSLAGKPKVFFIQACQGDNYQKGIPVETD
Caspase-8, sequence (Q14790 385-479 limits assumed): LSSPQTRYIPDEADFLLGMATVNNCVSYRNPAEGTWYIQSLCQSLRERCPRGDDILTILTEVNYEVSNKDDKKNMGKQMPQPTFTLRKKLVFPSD

[21] = target: Caspase-9 (Homo sapiens, UniProt P55211); test: caspase-9 enzyme inhibition, dose response, selectivity assay for caspase-6 inhibitor project, biochemical, fluorescence, plate reader, cherry-picked samples (AID 743293)
Caspase-9, sequence (P55211 1-315 limits assumed): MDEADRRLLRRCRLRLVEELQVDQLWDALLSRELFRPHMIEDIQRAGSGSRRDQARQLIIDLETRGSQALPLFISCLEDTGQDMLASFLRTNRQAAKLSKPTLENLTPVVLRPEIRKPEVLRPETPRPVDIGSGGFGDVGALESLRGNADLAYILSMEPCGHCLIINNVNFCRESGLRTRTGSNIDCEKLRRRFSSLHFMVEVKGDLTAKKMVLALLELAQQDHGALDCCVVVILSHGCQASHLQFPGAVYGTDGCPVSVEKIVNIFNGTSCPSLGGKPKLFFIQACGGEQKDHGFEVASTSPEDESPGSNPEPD
Caspase-9, sequence (P55211 331-416 limits assumed): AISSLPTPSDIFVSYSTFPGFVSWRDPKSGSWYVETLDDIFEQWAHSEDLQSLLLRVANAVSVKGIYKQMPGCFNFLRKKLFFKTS

[22] = target: T5, Microphthalmia-associated transcription factor (Homo sapiens, UniProt O75030); test: TRPM1 promoter luciferase signal decrease, dose response, MITF inhibitor project, cell-based, SK-MEL-5, cherry-picked, set 3 (AID 493073); format: functional
T5 sequence (O75030 whole entry): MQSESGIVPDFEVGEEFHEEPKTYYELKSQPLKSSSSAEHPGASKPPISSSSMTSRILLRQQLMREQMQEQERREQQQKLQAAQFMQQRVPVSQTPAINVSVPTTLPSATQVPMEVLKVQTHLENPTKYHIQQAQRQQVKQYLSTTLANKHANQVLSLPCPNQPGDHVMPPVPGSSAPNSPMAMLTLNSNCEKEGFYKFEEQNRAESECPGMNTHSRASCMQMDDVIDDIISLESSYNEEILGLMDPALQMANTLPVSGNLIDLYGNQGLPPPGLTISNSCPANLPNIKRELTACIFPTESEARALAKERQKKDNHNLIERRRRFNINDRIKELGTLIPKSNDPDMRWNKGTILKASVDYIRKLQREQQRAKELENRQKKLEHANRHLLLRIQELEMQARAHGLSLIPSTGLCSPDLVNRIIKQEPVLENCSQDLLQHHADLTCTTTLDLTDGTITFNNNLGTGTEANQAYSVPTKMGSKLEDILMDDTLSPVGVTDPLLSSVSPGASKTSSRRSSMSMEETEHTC

[23] = target: T6, Apoptotic protease-activating factor 1 (Homo sapiens, UniProt O14727); format: functional
T6 sequence (O14727 whole entry): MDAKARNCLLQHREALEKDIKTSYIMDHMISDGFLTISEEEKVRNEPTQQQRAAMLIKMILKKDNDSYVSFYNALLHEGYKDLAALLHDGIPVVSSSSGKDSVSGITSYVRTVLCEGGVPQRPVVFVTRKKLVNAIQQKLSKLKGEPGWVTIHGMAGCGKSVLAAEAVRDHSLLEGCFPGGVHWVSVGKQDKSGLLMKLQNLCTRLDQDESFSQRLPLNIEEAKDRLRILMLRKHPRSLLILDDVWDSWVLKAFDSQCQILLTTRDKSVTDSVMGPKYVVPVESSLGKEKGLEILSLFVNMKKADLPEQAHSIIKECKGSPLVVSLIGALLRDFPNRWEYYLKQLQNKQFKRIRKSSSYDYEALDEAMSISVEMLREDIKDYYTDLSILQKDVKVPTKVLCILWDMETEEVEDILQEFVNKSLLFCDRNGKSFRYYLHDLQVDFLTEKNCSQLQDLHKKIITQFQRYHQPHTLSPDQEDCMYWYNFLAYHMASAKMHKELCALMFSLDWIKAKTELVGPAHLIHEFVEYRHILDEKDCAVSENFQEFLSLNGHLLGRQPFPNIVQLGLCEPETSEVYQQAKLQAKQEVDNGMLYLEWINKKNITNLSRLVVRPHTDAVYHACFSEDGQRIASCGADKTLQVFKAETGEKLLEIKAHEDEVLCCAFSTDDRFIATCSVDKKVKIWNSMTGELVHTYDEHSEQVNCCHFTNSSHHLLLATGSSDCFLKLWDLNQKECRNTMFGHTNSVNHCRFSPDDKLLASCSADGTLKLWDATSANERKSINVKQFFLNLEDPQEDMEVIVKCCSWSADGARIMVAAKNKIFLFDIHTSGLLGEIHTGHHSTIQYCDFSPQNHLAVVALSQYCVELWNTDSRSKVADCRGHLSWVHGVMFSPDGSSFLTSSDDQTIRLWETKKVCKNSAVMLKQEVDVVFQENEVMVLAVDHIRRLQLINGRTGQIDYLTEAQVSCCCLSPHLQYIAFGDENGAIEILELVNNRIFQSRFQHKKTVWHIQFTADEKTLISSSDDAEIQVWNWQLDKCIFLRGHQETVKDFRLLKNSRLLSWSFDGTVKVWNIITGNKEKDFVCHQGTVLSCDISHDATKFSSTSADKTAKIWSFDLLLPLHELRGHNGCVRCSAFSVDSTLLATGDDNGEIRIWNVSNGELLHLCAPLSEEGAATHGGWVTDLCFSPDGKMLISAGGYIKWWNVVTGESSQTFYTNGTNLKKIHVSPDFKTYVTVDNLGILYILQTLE

O=C(Nc1ccc(F)cc1)N1C[C@@H]2[C@H](c3ccccc31)[C@@H](CO)N2Cc1ccccc1Cl
AC50 [1]: 12.3 µM (active)

CC(C)OC(=O)OCOP(=O)(CO[C@H](C)Cn1cnc2c(N)ncnc21)OCOC(=O)OC(C)C
IC50 [2]: > 10 µM (inactive)
IC50 [3]: > 10 µM (inactive)

O=C1c2ccccc2C(=O)N1OCc1cccc(Cl)c1
IC50 [4]: 2.09 µM (active)

O=C1C(NS(=O)(=O)c2ccc(Br)cc2)=C(N2CCCCC2)C(=O)c2ccccc21
IC50 [5]: 14.5 µM (active)
AC50 [6]: 6.22 µM (active)
AC50 [7]: > 70 µM (inactive)
AC50 [8]: > 70 µM (inactive)

COc1ccccc1C#Cc1ccc([C@@H]2[C@@H](CO)N3CCCCN(CCC(F)(F)F)C[C@H]23)cc1
AC50 [9]: 0.418 µM (active)
AC50 [10]: 9.58 µM (active)
AC50 [11]: 1.13 µM (active)
AC50 [12]: 0.221 µM (active)
AC50 [13]: 36.5 µM (active)
AC50 [14]: 0.254 µM (active)

CCCNC(=O)N1[C@H](CO)[C@H](c2ccc(C#Cc3cccc(F)c3)cc2)[C@@H]1C#N
AC50 [1]: 8.55 µM (active)

Cn1c(C(=O)NCCN2CCOCC2)cc2c(=O)n(C)c3ccccc3c21
IC50 [15]: > 100 µM (active)
IC50 [16]: > 100 µM (active)

O=C1NC(=O)C(=Cc2ccccc2[N+](=O)[O-])S1
AC50 [17]: 9.01 µM (active)
IC50 [18]: 13.6 µM (inactive)
AC50 [19]: 3.66 µM (active)
AC50 [20]: 21 µM (active)
AC50 [21]: 16.1 µM (active)

CN1CCN(C2=C(NS(=O)(=O)c3ccccc3)C(=O)c3ccccc3C2=O)CC1
AC50 [22]: 6.9 µM (active)
AC50 [7]: 28.1 µM (active)
IC50 [23]: 39.1 µM (active)
AC50 [8]: 44.6 µM (active)
